Experimental data taken from US9970935B2, “Uses of GLI1 in detecting tissue fibrosis” (THE BRIGHAM AND WOMEN'S HOSPITAL, INC., priority 2014, dated 2018).
Entries after “also recorded” stand apart in the source; their conditions may differ.

Tests used:
UUO kidneys = assay: Unilateral ureteral obstruction (UUO) kidney fibrosis model; format: in vivo, mouse
human colon cancer cells = settings: cited from earlier work
lung = settings: in vivo; cited from earlier work
Gli2 = target: T1, Gli2 (Homo sapiens, UniProt P10070); assay: Gli2 darinaparsin binding assay (GST agarose bead pull-down); settings: 293T cells; for binding to Gli2 (pull-down of myc-tagged Gli2 with GST beads): 0.5 μM darinaparsin or vehicle
T1 construct: 293T cells were transfected with full length Gli2-myc and treated with darinaparsin (DAR) or vehicle (VEH); host or cells: Human 293T/17 (HEK 293T/17, ATCC)
T1 sequence (P10070 whole entry): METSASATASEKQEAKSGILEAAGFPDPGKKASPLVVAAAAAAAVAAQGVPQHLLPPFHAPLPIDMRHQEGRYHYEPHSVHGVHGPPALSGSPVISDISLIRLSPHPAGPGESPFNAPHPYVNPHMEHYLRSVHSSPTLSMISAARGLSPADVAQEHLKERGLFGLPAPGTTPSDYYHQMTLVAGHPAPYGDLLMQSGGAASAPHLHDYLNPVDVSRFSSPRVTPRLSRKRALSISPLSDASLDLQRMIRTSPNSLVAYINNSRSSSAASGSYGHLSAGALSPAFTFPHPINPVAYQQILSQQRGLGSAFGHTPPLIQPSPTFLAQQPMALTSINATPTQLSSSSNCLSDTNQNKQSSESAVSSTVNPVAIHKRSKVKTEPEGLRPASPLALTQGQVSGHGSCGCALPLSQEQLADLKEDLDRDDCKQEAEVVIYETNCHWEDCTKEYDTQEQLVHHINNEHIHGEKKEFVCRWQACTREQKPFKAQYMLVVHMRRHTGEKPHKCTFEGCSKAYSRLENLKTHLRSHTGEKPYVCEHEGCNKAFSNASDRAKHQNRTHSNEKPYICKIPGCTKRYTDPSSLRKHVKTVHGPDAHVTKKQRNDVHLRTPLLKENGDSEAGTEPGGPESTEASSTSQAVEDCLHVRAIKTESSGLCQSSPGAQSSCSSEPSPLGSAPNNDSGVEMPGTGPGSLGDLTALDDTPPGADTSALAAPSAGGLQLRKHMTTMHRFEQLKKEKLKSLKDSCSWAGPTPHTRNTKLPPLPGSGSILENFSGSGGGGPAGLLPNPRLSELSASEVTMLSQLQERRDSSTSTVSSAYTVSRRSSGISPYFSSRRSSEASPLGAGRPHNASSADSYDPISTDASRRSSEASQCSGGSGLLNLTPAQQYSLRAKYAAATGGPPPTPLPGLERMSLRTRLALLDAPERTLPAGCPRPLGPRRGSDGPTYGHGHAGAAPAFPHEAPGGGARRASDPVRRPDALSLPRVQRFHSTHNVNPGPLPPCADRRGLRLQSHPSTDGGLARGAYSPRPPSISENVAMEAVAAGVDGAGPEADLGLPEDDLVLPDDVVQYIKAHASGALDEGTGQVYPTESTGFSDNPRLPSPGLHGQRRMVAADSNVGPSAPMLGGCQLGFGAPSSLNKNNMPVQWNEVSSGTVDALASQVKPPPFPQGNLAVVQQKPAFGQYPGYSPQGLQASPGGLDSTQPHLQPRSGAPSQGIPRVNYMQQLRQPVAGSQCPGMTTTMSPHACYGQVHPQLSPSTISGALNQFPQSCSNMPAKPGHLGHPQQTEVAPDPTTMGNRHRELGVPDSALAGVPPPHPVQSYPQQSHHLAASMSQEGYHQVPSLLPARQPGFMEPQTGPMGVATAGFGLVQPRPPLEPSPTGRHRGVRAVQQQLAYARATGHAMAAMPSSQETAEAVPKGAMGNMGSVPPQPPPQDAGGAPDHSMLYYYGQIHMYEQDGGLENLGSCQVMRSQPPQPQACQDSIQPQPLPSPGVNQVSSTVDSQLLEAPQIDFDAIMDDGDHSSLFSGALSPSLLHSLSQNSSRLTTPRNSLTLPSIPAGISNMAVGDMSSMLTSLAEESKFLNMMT
Protocol: Human 293T/17 (HEK 293T/17, freshly ordered from ATCC) were grown in a 10 cm cell-culture dish until 80% confluent and transfected with pCS2-MT Gli2 FL kindly provided by Dr. Roessler (49) (ADDGENE Plasmid 17648: pCS2-MT GLI2 FL) using Lipofectamine 2000 (LIFE TECHNOLOGIES) according to the manufacturer instructions. 72 hours after transfection the cells were treated with 0.5 μM darinaparsin or vehicle in DMEM 10% FBS for 12 hours, thereafter cells were resuspended in cold (4° C.) PBS and washed twice with PBS. After centrifugation (1500 rpm, 5 minutes) 1 ml of IP-Lysis Buffer (THERMO SCIENTIFIC)+proteinase inhibtior (ROCHE, #1183617000T) was added to the cell pellet and the suspension was homogenized using an insulin syringe. After centrifugation of the protein-solution (15 min, 12000 rpm) the supernatant was transferred into a fresh tube, an aliquot of 100 μl was taken as input control (FIG. 24) and the solution was incubated with 50 μl GST-Agarose beads (PIERCE GST Agarose #20211, THERMO SCIENTIFIC) for 4 hours on a rotator at 4° C. Thereafter the bead-protein solution was centrifuged (5000 rpm, 3 min) and the supernatant was taken as outflow control (FIG. 24), the agarose beads were washed three times by adding 1 ml of the above mentioned IP-Lysis buffer containing proteinase inhibitors followed by vortexing and centrifugation (5000 rpm, 3 min), the supernatant after each centrifugation was discarded. After 3 washes, the GST beads were cooked at 96° C. for 7 minutes in 100 μl Laemmli buffer (BIO-RAD). All protein samples (input, outflow and the final GST bead purification solution) were analysed by western blot with an antibody against c-myc (mouse monoclonal, 9E 10, DSHB, Iowa) the membrane was stained with Ponceau-S (SIGMA) to show specificity (FIG. 6H).

10T1/2 cells [1] = assay: Western blot of whole cell-lysate from 10T1/2 cells treated with darinaparsin; format: cell-based, mouse; settings: darinaparsin 0.5 μM, 72 hours
Description: All cell-lines used within this study were freshly ordered from ATCC and routinely checked for mycoplasma contamination in the inventors' laboratory. 10T1/2 cells (ATCC) and cultured in Basal Medium Eagle (BME, GIBCO; LIFE TECHNOLOGIES) supplemented with 10% fetal bovine serum (FBS), penicillin and streptomycin and 2 mmol/L glutamine (GIBCO). Sonic hedgehog conditioned media was produced from supernatant of confluent Cos7 cells stably transfected with pcDNA3-N-Shh or pcDNA3 control plasmid. For Western blot experiments cells were grown on 10 cm dishes, serum starved in 0.5% FBS for 12 hours and then incubated with darinaparsin (0.5 μM) or vehicle with either Shh preconditioned medium or Cos7 control media (5× i.e., 2 ml preconditioned media in 8 ml BMW 0.5% FBS) for 72 hours.
Kidney tissue was snap frozen in liquid nitrogen and stored at −80° C. immediately after mice were killed. Tissue samples were homogenized in lysis buffer containing 10 mM HEPES, pH 7.4, 0.32M sucrose, 2 mM EDTA, 1 mM DTT, 1 mM PMSF and 1 protease inhibitor tablet per 10 ml of lysis buffer (ROCHE Cat. No. 11836153001). Samples were sonicated and protein concentration was determined by the Bradford Assay using BIO-RAD Protein Assay Dye (BIORAD, Cat. No. 500-0006). 10-40 μg of protein from lysates was loaded on a 7.5 or 10% polyacrylamide gel and separated by SDS electrophoresis. Proteins were transferred to a IMMOBILON membrane (MILLIPORE) blocked in 5% milk in PBST, probed overnight at 4° C. with the primary antibodies: mouse anti-αSMA at 1:4000 (SIGMA, Cat. #A2547), rabbit anti-fibronectin at 1:4000 (ABCAM, #ab23750), rabbit anti-p21 at 1:200 (SANTA CRUZ BIOTECHNOLOGIES, #sc-471), rabbit anti-phospho-retinoblastoma(72) at 1:1000 (CELL SIGNALING #9307S, Ser780), rat anti-Gli1 at 1:1000 (R&D Systems #MAB3324), goat anti-Gli2 at 1:500 (R&D Systems #AF3635), rabbit anti-Cyclin Eat 1:200 (SANTA CRUZ #sc-481), rabbit anti-Cyclin A at 1:200 (SANTA CRUZ BIOTECHNOLOGIES #sc-751), rabbit anti-HA-Tag at 1:5000 (CELL SIGNALING #3724), mouse anti-c-myc (DSHB, Iowa, 9E 10) and rabbit anti-GAPDH at 1:4000 (BETHYL LABORATORIES, #A300-641A). Following incubation with primary antibody blots were washed probed with respective horseradish-peroxidase conjugated secondary antibodies at 1:5000 (DAKO, Cat. No. P0447, P0448, P0450) for 1 hour at room temperature and then visualized using the Western Lightning ECL kit from PERKINELMER (#NEL100001EA). Quantification of western bands was performed using ImageJ (NIH).

kidney = settings: mouse, in vivo
10T1/2 cells [2] = assay: Flow cytometric cell-cycle analysis of 10T1/2 cells; format: cell-based, mouse; settings: for cell-cycle distribution after siRNA knockdown: siRNA 5 nM vs scrambled siRNA
[3] = cited from earlier work
[4] = system: ATO resistant myeloma cell-lines; settings: cited from earlier work
Gli1 and Gli2 = settings: cited from earlier work
Gli1+ MSC = assay: Myofibroblast differentiation of Gli1+ MSC in vitro upon TGF-β; format: cell-based, mouse; settings: for αSMA expression: Gli1+ MSC from bone marrow / bone chips or heart
10T1/2 cells [5] = assay: siRNA knockdown in 10T1/2 cells, mRNA and protein levels; format: cell-based, mouse
Protocol: For siRNA experiments cells were transfected with siRNA against Gli1 (LIFE SCIENCES, siRNA ID: s66723, Sequence 5'3' Sense: […] NO: 11), Antisense: […] NO: 12)), Gli2 (LIFE SCIENCES, siRNA ID: s66726, Sequence 5'3' Sense: […] NO: 13), Antisense: […] Transfection was performed with a final concentration of 5 nM of each siRNA according to the manufacturer instructions using LIPOFECTAMINE RNAiMAX transfection reagent (LIFE TECHNOLOGIES, #3778075). 72 hours after transfection cells were harvested for RNA or protein isolation. […] Kidney tissue or cell-pellets were harvested and immediately snap frozen in liquid nitrogen. RNA was extracted according to the manufacturer instructions using the RNeasy Mini Kit (QIAGEN) and 600 ng of total RNA was reverse transcribed with iScript (BIORAD). Quantitative polymerase chain reactions were carried out with iQ-SYBR Green supermix (BIORAD) and the BIORAD CFX96 Real Time System with the C1000 Touch Thermal Cycler. […] Glyceraldehyde-3-phosphate dehydrogenase (GAPDH) was used as a housekeeping gene. Data was analyzed using the 2-ΔΔct method. Kidney tissue was snap frozen in liquid nitrogen and stored at -80° C. immediately after mice were killed. Tissue samples were homogenized in lysis buffer containing 10 mM HEPES, pH 7.4, 0.32M sucrose, 2 mM EDTA, 1 mM DTT, 1 mM PMSF and 1 protease inhibitor tablet per 10 ml of lysis buffer (ROCHE Cat. No. 11836153001). Samples were sonicated and protein concentration was determined by the Bradford Assay using BIO-RAD Protein Assay Dye (BIORAD, Cat. No. 500-0006). 10-40 μg of protein from lysates was loaded on a 7.5 or 10% polyacrylamide gel and separated by SDS electrophoresis. […] Following incubation with primary antibody blots were washed probed with respective horseradish-peroxidase conjugated secondary antibodies at 1:5000 (DAKO, Cat. No. P0447, […]) for 1 hour at room temperature and then visualized using the Western Lightning ECL kit from PERKINELMER (#NEL100001EA). Quantification of western bands was performed using ImageJ (NIH).

[6] = GANT61 after UUO, UUO kidneys vs vehicle
[7] = GANT61 after UUO, listed as Gant61
[8] = siRNA 5 nM, 72 hours after transfection

CN(C)c1ccccc1CN1CCCN(Cc2ccccc2N(C)C)C1c1ccncc1 [GANT61]
interstitial fibrosis (scoring of trichrome stained sections) (UUO kidneys; GANT61 50 mg/kg s.c. at day 1, 2, 3, 5, 7 and 9 after UUO, vs vehicle, 50 mg/kg): significantly reduced; also recorded: significantly less fibrosis
Gli1 protein level of UUO kidneys (UUO kidneys; GANT61 after UUO): significantly reduced
Gli2 protein level of UUO kidneys (UUO kidneys; GANT61 after UUO): significantly reduced
mRNA expression of hedgehog readout Gli1 (UUO kidneys; GANT61 after UUO): reduced
mRNA expression of hedgehog readout Ptch1 (UUO kidneys; GANT61 after UUO): reduced
expression of fibrotic readout Coiled (UUO kidneys; [6]): significantly reduced; also recorded: significant lower expression
expression of fibrotic readout fibronectin (UUO kidneys; [6]): significantly reduced; also recorded: significant lower expression
expression of fibrotic readout α-SMA (UUO kidneys; [6]): significantly reduced; also recorded: significant lower expression
mRNA expression of hedgehog readout Gli1 (UUO kidneys; [7]): significant reduction
mRNA expression of hedgehog readout Ptch1 (UUO kidneys; [7]): significant reduction
cell cycle of human colon cancer cells (human colon cancer cells): induced a G0/G1 arrest
p21 in human colon cancer cells (human colon cancer cells): upregulation
fibrosis severity in bleomycin induced lung fibrosis (lung): decreased fibrosis severity

CS(=O)(=O)c1ccc(C(=O)Nc2ccc(Cl)c(-c3ccccn3)c2)c(Cl)c1 [GDC-0449]
fibrosis severity in bleomycin induced lung fibrosis (lung): did not show this effect

C[As](C)SC[C@H](NC(=O)CC[C@H](N)C(=O)O)C(=O)NCC(=O)O [darinaparsin, S-dimethylarsino-glutathione]
enrichment of other nonspecific proteins (Ponceau staining) (Gli2; 0.5 μM darinaparsin): did not result in enrichment
binding to Gli2 (pull-down of myc-tagged Gli2 with GST beads) (Gli2): binds directly to Gli2
binding to Gli2 (pull-down of myc-tagged Gli2 with GST beads) (Gli2; listed as DAR): able to pull down Gli2
Gli1 protein level (10T1/2 cells [1]): reduced
Gli2 protein level (10T1/2 cells [1]): reduced
p21 level (10T1/2 cells [1]): upregulation
p-Rb level (10T1/2 cells [1]): decreased levels
fibrotic readouts (UUO kidneys; mouse, in vivo): substantial reductions
BUN levels (kidney): lower
interstitial fibrosis (kidney): reduced
cell-cycle effect of darinaparsin upon Gli2 overexpression (10T1/2 cells [2]; 10T1/2 cells with retroviral full-length Gli2 vs control virus): rescued the cell-cycle effect; also recorded: rescues the cell cycle effect
cell-cycle distribution of 10T1/2 cells (10T1/2 cells [2]; darinaparsin 0.5 μM vs vehicle, BrdU/7AAD flow cytometry): induces a G0/G1 cell cycle arrest
systemic toxicity ([3]; compared to ATO): significantly lower
tolerated maximum dose compared to ATO ([3]; higher than ATO): 50 fold
side effect on fast cycling cell populations as the bone marrow or intestine ([3]; reported by Tian et al.): no significant side effect
susceptibility of ATO resistant myeloma cell-lines [4]: susceptible

Arsenic trioxide [ATO]
antagonism of Gli1 and Gli2 (Gli1 and Gli2): antagonize both Gli1 and Gli2

TGF-β
αSMA expression (Gli1+ MSC): acquired expression
αSMA expression (Gli1+ MSC; listed as TGFβ): robust upregulation
induction of αSMA (Gli1+ MSC; bone marrow-derived Gli1+ MSC purified by FACS): 45 ×

siRNA against Gli1: siRNA ID s66723, SEQ ID NO: 11 and 12 (chain 1 GCAGGUCUCCUAUCCUGAUTT; chain 2 NAUCAGGAUAGGAGACCUGCTG; chemistry not given here)
cell-cycle distribution after siRNA knockdown (10T1/2 cells [2]): had no effect
mRNA and protein levels of Gli1 (10T1/2 cells [5]; [8]): reduced

siRNA directed against Gli2: siRNA ID s66726, SEQ ID NO: 13 and 14 (chain 1 GGAAAACUUCAACAAUACATT; chain 2 UGUAUUGUUGAAGUUUUCCAG; chemistry not given here)
cell-cycle distribution after siRNA knockdown (10T1/2 cells [2]): G0/G1 arrest
Gli2 expression (10T1/2 cells [5]; [8]): reduced
mRNA and protein levels of Gli1 (10T1/2 cells [5]; [8]): reduced
p21 level (10T1/2 cells [5]; siRNA knockdown, western blot): increased levels
phosphorylated retinoblastoma (Ser780) level (10T1/2 cells [5]; siRNA knockdown, western blot): reduced levels
